Source: patent US20090280130A1 (priority 2006, published 2009)
Where “and” joins values, the source holds several entries; their conditions need not be identical. Identical values can stand only once. Entries after “also recorded” stand apart in the source; their conditions may differ.

What was measured:
[1] = tested on: zebrafish embryos; format: in vivo; details: n>30
[2] = tested on: zebrafish embryos; details: in vivo
[3] = tested on: zebrafish embryos; details: in vivo; remark: listed apart in the source
[4] = tested on: mouse skin microvasculature; design: species or system C3H/HeJ mice; details: in vivo
[5] = molecular target: VEGFR2 (Mus musculus, UniProt P35918); details: cited from earlier work
[6] = tested on: zebrafish embryos; format: in vivo; details: 5 μM for 6 hours
[7] = tested on: zebrafish embryos; details: in vivo; remark: listed apart in the source
[8] = molecular target: T1, VEGFR2 (Homo sapiens, UniProt P35968); details: cited from earlier work
[9] = molecular target: VEGFR1 (Homo sapiens, UniProt P17948); details: cited from earlier work
[10] = molecular target: T1, VEGFR2; details: cited from earlier work; remark: listed apart in the source

T1 sequence (P35968 20-1356): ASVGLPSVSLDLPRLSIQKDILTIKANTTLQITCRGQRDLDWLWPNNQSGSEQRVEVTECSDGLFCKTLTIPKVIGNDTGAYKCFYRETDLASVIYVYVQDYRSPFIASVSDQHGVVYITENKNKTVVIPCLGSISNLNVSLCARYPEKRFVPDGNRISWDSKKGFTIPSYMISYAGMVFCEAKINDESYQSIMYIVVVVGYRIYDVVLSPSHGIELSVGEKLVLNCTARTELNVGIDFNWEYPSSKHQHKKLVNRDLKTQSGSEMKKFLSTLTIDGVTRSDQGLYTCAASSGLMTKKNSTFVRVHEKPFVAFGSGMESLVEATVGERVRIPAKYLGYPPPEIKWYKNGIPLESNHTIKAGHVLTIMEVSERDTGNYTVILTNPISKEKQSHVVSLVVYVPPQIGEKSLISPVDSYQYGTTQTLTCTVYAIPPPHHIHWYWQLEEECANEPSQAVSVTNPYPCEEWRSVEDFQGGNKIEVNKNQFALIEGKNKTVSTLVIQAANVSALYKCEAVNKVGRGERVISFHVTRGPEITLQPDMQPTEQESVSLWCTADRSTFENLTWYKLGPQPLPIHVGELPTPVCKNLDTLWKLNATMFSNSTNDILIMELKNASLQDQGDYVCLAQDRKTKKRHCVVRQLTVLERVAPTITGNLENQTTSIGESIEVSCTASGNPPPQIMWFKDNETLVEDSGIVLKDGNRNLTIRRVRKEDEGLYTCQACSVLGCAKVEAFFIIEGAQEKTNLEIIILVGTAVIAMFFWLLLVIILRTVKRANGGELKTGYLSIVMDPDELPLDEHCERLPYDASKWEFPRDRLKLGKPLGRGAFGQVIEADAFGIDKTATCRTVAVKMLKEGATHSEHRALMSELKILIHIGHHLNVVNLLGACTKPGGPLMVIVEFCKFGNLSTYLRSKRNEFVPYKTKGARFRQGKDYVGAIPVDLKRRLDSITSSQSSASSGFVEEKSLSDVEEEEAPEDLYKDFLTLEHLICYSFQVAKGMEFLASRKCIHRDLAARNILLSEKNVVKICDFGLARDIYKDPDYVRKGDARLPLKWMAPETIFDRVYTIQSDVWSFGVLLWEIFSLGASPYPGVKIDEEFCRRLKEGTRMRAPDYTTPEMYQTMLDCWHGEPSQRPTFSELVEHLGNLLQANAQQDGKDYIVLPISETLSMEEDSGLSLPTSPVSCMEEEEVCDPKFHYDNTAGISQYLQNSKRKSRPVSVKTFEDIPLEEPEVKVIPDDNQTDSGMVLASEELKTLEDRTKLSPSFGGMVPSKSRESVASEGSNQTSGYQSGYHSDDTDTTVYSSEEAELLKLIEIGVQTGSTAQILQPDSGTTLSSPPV
Chain of VEGFR2 (Mus musculus, UniProt P35918) (P35918 20-1345): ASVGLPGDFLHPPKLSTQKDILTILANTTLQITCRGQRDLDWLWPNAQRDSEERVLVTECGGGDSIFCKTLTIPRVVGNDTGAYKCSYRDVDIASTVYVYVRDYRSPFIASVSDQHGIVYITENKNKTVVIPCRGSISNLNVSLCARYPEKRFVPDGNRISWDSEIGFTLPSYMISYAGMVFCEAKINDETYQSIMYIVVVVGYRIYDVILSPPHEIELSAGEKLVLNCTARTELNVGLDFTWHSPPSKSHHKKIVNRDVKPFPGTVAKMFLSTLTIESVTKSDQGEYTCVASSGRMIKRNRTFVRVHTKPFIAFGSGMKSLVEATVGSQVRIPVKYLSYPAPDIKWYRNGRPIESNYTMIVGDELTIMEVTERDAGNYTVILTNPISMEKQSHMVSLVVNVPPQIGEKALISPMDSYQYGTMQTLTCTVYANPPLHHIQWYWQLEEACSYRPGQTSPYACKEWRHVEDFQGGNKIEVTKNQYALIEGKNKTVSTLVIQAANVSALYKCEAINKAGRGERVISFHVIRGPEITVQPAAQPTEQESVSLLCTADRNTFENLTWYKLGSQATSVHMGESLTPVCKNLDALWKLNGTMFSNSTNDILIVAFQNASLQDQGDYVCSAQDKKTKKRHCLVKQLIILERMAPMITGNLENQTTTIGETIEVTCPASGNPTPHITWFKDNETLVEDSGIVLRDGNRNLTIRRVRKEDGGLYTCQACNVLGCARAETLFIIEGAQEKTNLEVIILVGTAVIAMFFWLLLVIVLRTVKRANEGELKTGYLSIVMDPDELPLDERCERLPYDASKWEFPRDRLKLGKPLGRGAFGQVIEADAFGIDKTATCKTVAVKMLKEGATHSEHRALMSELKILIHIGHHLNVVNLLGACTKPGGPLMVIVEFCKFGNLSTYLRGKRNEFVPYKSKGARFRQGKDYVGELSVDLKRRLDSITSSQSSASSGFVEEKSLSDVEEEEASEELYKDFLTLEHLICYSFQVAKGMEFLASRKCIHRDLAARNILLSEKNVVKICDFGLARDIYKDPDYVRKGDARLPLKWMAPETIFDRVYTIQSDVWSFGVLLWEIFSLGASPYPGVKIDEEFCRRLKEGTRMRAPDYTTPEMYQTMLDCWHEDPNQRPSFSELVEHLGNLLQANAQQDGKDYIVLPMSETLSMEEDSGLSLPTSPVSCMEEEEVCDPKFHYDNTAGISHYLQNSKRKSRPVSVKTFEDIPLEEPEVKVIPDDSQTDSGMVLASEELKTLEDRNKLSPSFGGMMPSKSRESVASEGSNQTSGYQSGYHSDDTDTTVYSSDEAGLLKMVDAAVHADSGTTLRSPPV
Chain of VEGFR1 (P17948 27-1338): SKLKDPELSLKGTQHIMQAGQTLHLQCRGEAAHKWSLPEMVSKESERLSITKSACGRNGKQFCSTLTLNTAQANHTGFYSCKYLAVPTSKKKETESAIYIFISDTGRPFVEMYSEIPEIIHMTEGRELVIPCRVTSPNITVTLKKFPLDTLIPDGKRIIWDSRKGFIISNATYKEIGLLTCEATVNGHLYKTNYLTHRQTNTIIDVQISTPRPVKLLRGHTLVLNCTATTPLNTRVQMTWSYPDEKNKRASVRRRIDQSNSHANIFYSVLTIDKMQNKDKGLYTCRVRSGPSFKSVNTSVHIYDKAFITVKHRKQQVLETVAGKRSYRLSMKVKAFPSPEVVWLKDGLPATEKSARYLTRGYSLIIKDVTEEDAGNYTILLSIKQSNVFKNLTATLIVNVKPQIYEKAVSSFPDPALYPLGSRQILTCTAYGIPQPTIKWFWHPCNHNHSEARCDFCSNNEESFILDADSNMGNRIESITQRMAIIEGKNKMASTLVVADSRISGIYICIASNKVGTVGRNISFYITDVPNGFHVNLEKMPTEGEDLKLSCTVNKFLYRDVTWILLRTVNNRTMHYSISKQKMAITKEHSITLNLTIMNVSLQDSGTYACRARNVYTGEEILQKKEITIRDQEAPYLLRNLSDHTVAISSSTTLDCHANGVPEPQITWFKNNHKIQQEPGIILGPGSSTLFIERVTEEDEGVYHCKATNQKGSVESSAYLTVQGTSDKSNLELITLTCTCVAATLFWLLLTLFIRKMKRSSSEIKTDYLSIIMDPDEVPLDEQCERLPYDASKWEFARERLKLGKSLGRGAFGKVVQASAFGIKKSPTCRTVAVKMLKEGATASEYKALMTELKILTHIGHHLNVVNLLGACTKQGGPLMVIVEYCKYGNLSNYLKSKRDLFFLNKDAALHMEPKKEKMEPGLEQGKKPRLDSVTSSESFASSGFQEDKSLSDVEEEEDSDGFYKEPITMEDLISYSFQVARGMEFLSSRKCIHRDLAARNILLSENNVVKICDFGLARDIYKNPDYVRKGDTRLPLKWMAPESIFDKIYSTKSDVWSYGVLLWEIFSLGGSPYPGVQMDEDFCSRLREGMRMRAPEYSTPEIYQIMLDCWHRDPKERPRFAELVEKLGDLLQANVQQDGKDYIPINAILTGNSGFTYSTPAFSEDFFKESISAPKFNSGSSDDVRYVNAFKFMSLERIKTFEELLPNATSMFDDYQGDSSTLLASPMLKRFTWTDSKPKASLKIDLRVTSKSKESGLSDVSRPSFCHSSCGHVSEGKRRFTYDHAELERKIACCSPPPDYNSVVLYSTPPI

Compound	Mild Toxin Phenotype [3]	Severe Toxin Phenotype [3]	Wildtype Appearance [3]	other results
O=C(NOCC1CC1)c1ccc(F)c(F)c1Nc1ccc(I)cc1Cl [CI-1040]				embryos in which LeTx effects were phenocopied [1]: 100%
CCN(CC)CCNC(=O)c1c(C)[nH]c(/C=C2\C(=O)Nc3ccc(Cl)cc32)c1C [SU11652]	11	10	1	% With Toxin Phen (Mild and Severe) [2]: 80% and 100%; Mild Phen [2]: 7 and 9 and 8; Protection against LeTx effects (in words) [2]: able to protect against LeTx effects; Severe Toxin Phen [2]: 9 and 11 and 12; Protection against LeTx effects / phenotypes (in words) [3]: demonstrated protection against LeTx effects; LeTx induced vascular leakage, Evans Blue Dye (in words) [4]: attenuated LeTx induced vascular leakage significantly; Blocking of VEGFR2 activity in vivo (in words) [5]: used successfully to block VEGFR2 activity
Cn1cc(C=C2C(=O)Nc3ccc(S(N)(=O)=O)cc32)c2ccccc21 [Syk Inhibitor, 3-(1-Methyl-1H-indol-3-yl-methylene)-2-oxo-2,3-dihydro-1H-indol-5-sulfonamide]	7	14	1	
C[C@@H](N)[C@H]1CC[C@H](C(=O)Nc2ccncc2)CC1 [Y-27632]	6	13	1	
C[C@@H]1C[C@@H]([C@H](O)CC2CC(=O)NC(=O)C2)C(=O)[C@@H](C)C1 [cycloheximide]				Phenocopy of endothelial cell fragmentation in the intersegmental vessels (in words) [6]: phenocopied
AG-1296	3	15	2	
ZM323881	10	8	4	Mild Toxin Phen [7]: 12 and 8 and 9 and 13; Proportion of embryos displaying LeTx phenotypes (in words) [7]: reduction in the proportion of embryos displaying LeTx phenotypes is seen in 3 concentrations of the inhibitor; Severe forms of the LeTx phenotype (in words) [7]: dramatic reduction in the severe forms of the LeTx phenotype that occurred in all concentrations used; Attenuation of toxin effects (in words) [2]: able to attenuate the toxin effects; Protection against LeTx effects / phenotypes (in words) [3]: provided the best protection against the development of LeTx phenotypes; also recorded: demonstrated protection against LeTx effects; LeTx induced vascular leakage, Evans Blue Dye (in words) [4]: attenuated LeTx induced vascular leakage significantly; IC50 [8]: < 0.002 µM; IC50 [9]: > 50 µM; VEGFR2 activation (in words) [10]: inhibit VEGFR2 activation
ZM449829	5	15	1	
